One test has as its system MCP-1. As to the kind of experiment: PBMC MCP-1 HTRF Assay. The conditions noted are these: LPS 200 ng/mL, 24 hours. Type of test: cell-based. As to the method: The cryopreserved PBMC cells were thawed in a 37° C. water bath immediately after taking out from liquid nitrogen storage. A sterile pipette was used to transfer the content to sterile […] centrifuge tube containing […] of complete growth medium (Gibico 1640) and centrifuge at 300×g for 10 min. Supernatant was discarded, and cell pellet was resuspended in 10 mL of complete growth media in a sterile 15 mL tube. The cells were rested for 1 h at 37° C. (1×10^6 cells/mL). The cells were spinned down at 300×g for 10 minutes after 1 h. Supernatant was discard, and cell pellet was resuspended in complete growth medium, the cells number and viability were measured by AO/PI staining. In a 384-well white plate, PBMCs at 25 k cells/well (15 μl per well) were seeded with Gibico 1640 medium. The compound stock was serial diluted into […] by 3-fold dilution. 20 nL DMSO, 20 nL test compounds DMSO stock (serial diluted) were transferred in assay plate by using ECHO550, incubate for 30 min at 37° C., 5% CO2. LPS was diluted by Gibico 1640 medium.add 5 μl per well. The final concentration (200 ng/mL) was incubated for 24 hours at 37° C. with 5% CO2.
For MCP-1 HTRF, 2.5 μl/well MCP-1 donor antibody and 2.5 μl/well MCP-1 acceptor antibody were added into 384 well plate, following by centrifuging at 190×g for 1 min and incubating at room temperature for 2 h. The plate was read on the Envision.
(In general: Time-resolved FRET reads energy transfer from a long-lived donor to a nearby acceptor.)

Another test addresses T1, BRD4 BD2 (Homo sapiens, UniProt O60885).
T1 construct: BD2 TE; expressed in transfected cells
As to the kind of experiment: Target Engagement Intracellular BET BRD Assay (NanoBRET). Type of test: cell-based. Conditions: read-out: BRD4 BD2 TE IC50. As to the method: 3× Complete Substrate plus Inhibitor Solution in Assay Medium (Opti-MEM® I Reduced Serum Medium, no phenol red, and no serum) was prepared just before measuring BRET. This solution consisted of a 1:166 dilution of NanoBRET™ Nano-Glo® Substrate plus a 1:500 dilution of Extracellular NanoLuc® Inhibitor in Assay Medium. For a 96-well plate, 30 μl of NanoBRET™ Nano-Glo® Substrate, 10 μl of Extracellular NanoLuc® Inhibitor and 4,960 μl of Assay Medium were mixed to produce 5 ml of 3× Complete Substrate plus Inhibitor Solution, followed with gently mixing by inversion 5-10 times in a conical tube. (The final concentration of Extracellular NanoLuc® Inhibitor in the 3× solution was 60 μM, for a working concentration of 20 μM. Use 3× Complete Substrate plus Inhibitor Solution within 2 hours. Discard any remaining solution).
50 μl of 3× Complete Substrate plus Inhibitor Solution were added to each well of the 96-well plate, followed by incubation for 2-3 minutes at room temperature. Donor emission wavelength (e.g., 450 nm) and acceptor emission wavelength (e.g., 610 nm) were measured by using the GloMax® Discover System or other NanoBRET™ Assay-compatible luminometer (it is recommended measuring BRET within 10 minutes after adding NanoBRET™ Nano-Glo™ Substrate plus Extracellular NanoLuc® Inhibitor Solution. However, BRET can be measured for up to 2 hours, but there will be some loss of luminescence signal).
To generate raw BRET ratio values, the acceptor emission value (e.g., 610 nm) was divided by the donor emission value (e.g., 450 nm) for each sample [to correct for background, the BRET ratio was substracted in the absence of tracer (average of no-tracer control samples) from the BRET ratio of each sample]. Raw BRET units were converted to milliBRET units (mBU) by multiplying each raw BRET value by 1,000. NanoBRET™ ratio equation, including optional background correction is shown below:
BRET Ratio=[(Acceptorsample÷Donorsample)−(Acceptorno-tracer control÷Donorno-tracer control)]×1,000.

From US20240208939A1, “TREATMENT OF AUTOIMMUNE AND INFLAMMATORY DISORDERS WITH INHIBITORS OF BET FAMILY BDII BROMODOMAIN” (POSEIDON INNOVATION 1, INC., priority 2022, published 2024) come the findings set out here.

In general, IC50 refers to the concentration at which inhibition is half-maximal. Turning to `Cc1cc(-c2ccc(-n3ccn(C)c3=O)c(Cl)c2)c(O)c(-c2cccc(N3CCN(C(C)(C)C)CC3)c2)n1` [Example I-2, 1-(4-(2-(3-(4-(tert-butyl)piperazin-1-yl)phenyl)-3-hydroxy-6-methylpyridin-4-yl)-2-chlorophenyl)-3-methyl-1,3-dihydro-2H-imidazol-2-one], the concentration for half-maximal inhibition (IC50) turned out to be 1.22 nM in the test on MCP-1 and 0.152 nM at BRD4 BD2.

As to `COc1ncc(-c2nc(C)cc(-c3ccc(-n4ccn(C)c4=O)c(Cl)c3)c2O)cc1N1CCN(C(C)(C)C)CC1` [Example I-3, 1-(4-(5′-(4-(tert-butyl)piperazin-1-yl)-3-hydroxy-6′-methoxy-6-methyl-[2,3′-bipyridin]-4-yl)-2-chlorophenyl)-3-methyl-1,3-dihydro-2H-imidazol-2-one], the IC50 in the test on MCP-1 turned out to be 4.4 nM; at BRD4 BD2, 4.5 nM.

With `[2H]C([2H])([2H])n1ccn(-c2ccc(-c3cc(C)nc(-c4cccc(N5CCN(C(C)(C)C)CC5)c4)c3O)cc2Cl)c1=O` [Example I-4, 1-(4-(2-(3-(4-(tert-butyl)piperazin-1-yl)phenyl)-3-hydroxy-6-methylpyridin-4-yl)-2-chlorophenyl)-3-(methyl-d3)-1,3-dihydro-2H-imidazol-2-one], the half-inhibitory concentration (IC50) was 1.72 nM in the test with MCP-1 and 10.2 nM on BRD4 BD2.

As to `Cc1cc(-c2ccc(-n3ccn(C)c3=O)c(Cl)c2)c(N)c(-c2cccc(N3CCN(C(C)(C)C)CC3)c2)n1` [Example I-5, 1-(4-(3-amino-2-(3-(4-(tert-butyl)piperazin-1-yl)phenyl)-6-methylpyridin-4-yl)-2-chlorophenyl)-3-methyl-1,3-dihydro-2H-imidazol-2-one], the half-maximal inhibitory concentration (IC50) with MCP-1 was 0.583 nM; at BRD4 BD2 it was 0.473 nM.

Take `Cc1cc(-c2ccc(-n3ccn(C)c3=O)c(Cl)c2)c(O)c(-c2cc(Cl)cc(N3CCN(C(C)(C)C)CC3)c2)n1` [Example I-6, 1-(4-(2-(3-(4-(tert-butyl)piperazin-1-yl)-5-chlorophenyl)-3-hydroxy-6-methylpyridin-4-yl)-2-chlorophenyl)-3-methyl-1,3-dihydro-2H-imidazol-2-one]: the concentration for half-maximal inhibition (IC50) with MCP-1 stood at 2.25 nM; at BRD4 BD2, 9.11 nM.

As for `Cc1cc(-c2ccc(-n3ccn(C)c3=O)c(Cl)c2)c(O)c(-c2ccc(F)c(N3CCN(C(C)(C)C)CC3)c2)n1` [Example I-7, 1-(4-(2-(3-(4-(tert-butyl)piperazin-1-yl)-4-fluorophenyl)-3-hydroxy-6-methylpyridin-4-yl)-2-chlorophenyl)-3-methyl-1,3-dihydro-2H-imidazol-2-one], the 50% inhibitory concentration (IC50) in the test with MCP-1 is 1.79 nM; at BRD4 BD2, 11 nM.

Turning to `Cc1cc(-c2ccc(-n3ccn(C)c3=O)c(F)c2)c(O)c(-c2cccc(N3CCN(C(C)(C)C)CC3)c2)n1` [Example I-8, 1-(4-(2-(3-(4-(tert-butyl)piperazin-1-yl)phenyl)-3-hydroxy-6-methylpyridin-4-yl)-2-fluorophenyl)-3-methyl-1,3-dihydro-2H-imidazol-2-one], the results for the IC50 in the test with MCP-1 and on BRD4 BD2 were 5.39 nM and 13 nM, respectively.

With `Cc1cc(-c2ccc(-n3ccn(C)c3=O)c(Cl)c2)c(O)c(-c2cc(N3CCN(C(C)(C)C)CC3)n(C)c(=O)c2)n1` [Example I-9, 6′-(4-(tert-butyl)piperazin-1-yl)-4-(3-chloro-4-(3-methyl-2-oxo-2,3-dihydro-1H-imidazol-1-yl)phenyl)-3-hydroxy-1′,6-dimethyl-[2,4′-bipyridin]-2′(1′H)-one], the IC50 with MCP-1 stood at 66.3 nM; on BRD4 BD2 it was 87.2 nM.

With `Cc1cc(-c2ccc(-n3ccn(C)c3=O)c(C)c2)c(O)c(-c2cccc(N3CCN(C(C)(C)C)CC3)c2)n1` [Example I-10, 1-(4-(2-(3-(4-(tert-butyl)piperazin-1-yl)phenyl)-3-hydroxy-6-methylpyridin-4-yl)-2-methylphenyl)-3-methyl-1,3-dihydro-2H-imidazol-2-one], the concentration for half-maximal inhibition (IC50) in the test on MCP-1 stood at 1.46 nM; at BRD4 BD2, 7.59 nM.

Turning to `Cc1cc(-c2ccc(-n3ccn(C)c3=O)c(Cl)c2)c(O)c(-c2ccc(Cl)c(N3CCN(C(C)(C)C)CC3)c2)n1` [Example I-11, 1-(4-(2-(3-(4-(tert-butyl)piperazin-1-yl)-4-chlorophenyl)-3-hydroxy-6-methylpyridin-4-yl)-2-chlorophenyl)-3-methyl-1,3-dihydro-2H-imidazol-2-one], the IC50 in the test on MCP-1 was determined as 6.34 nM; at BRD4 BD2, 4.22 nM.

As to `Cc1cc(-c2ccc(-n3ccn(C)c3=O)c(Cl)c2)c(O)c(-c2cc(F)cc(N3CCN(C(C)(C)C)CC3)c2)n1` [Example I-12, 1-(4-(2-(3-(4-(tert-butyl)piperazin-1-yl)-5-fluorophenyl)-3-hydroxy-6-methylpyridin-4-yl)-2-chlorophenyl)-3-methyl-1,3-dihydro-2H-imidazol-2-one], the half-inhibitory concentration (IC50) with MCP-1 turned out to be 4.72 nM; at BRD4 BD2, 4.31 nM.

With `Cn1ccn(-c2ccc(-c3cc(F)nc(-c4cccc(N5CCN(C(C)(C)C)CC5)c4)c3O)cc2Cl)c1=O` [Example I-13, 1-(4-(2-(3-(4-(tert-butyl)piperazin-1-yl)phenyl)-6-fluoro-3-hydroxypyridin-4-yl)-2-chlorophenyl)-3-methyl-1,3-dihydro-2H-imidazol-2-one], the IC50 in the test with MCP-1 was 16.7 nM; on BRD4 BD2 it was 83.6 nM.

As to `Cn1ccn(-c2ccc(-c3ccnc(-c4cccc(N5CCN(C(C)(C)C)CC5)c4)c3O)cc2Cl)c1=O` [Example I-14, 1-(4-(2-(3-(4-(tert-butyl)piperazin-1-yl)phenyl)-3-hydroxypyridin-4-yl)-2-chlorophenyl)-3-methyl-1,3-dihydro-2H-imidazol-2-one], the concentration for half-maximal inhibition (IC50) is 21.1 nM in the test on MCP-1 and 68.5 nM at BRD4 BD2.

Regarding `COc1ncc(-c2cc(F)cc(-c3ccc(-n4ccn(C)c4=O)c(Cl)c3)c2O)cc1N1CCN(C(C)(C)C)CC1` [Example I-15, 1-(3′-(5-(4-(tert-butyl)piperazin-1-yl)-6-methoxypyridin-3-yl)-3-chloro-5′-fluoro-2′-hydroxy-[1,1′-biphenyl]-4-yl)-3-methyl-1,3-dihydro-2H-imidazol-2-one], the half-inhibitory concentration (IC50) with MCP-1 was determined as 1.09 nM; on BRD4 BD2, 0.152 nM.
